Test results as given in patent US20160250255A1, “METHODS FOR INDUCTION OF ANTIGEN-SPECIFIC REGULATORY T CELLS” (IMCYSE SA, priority 2013, published 2016).

What was measured:
dendritic cells = test: Induction of apoptosis of peptide-loaded dendritic cells by peptide-expanded NKT cells (annexin V binding); assay type: cell-based, C57BL/6 mice; conditions: NKT cells expanded with the peptide; FIG. 1, means of 2 experiments and SEM; negative control dendritic cells with no peptides
Method: Antigen-presenting cells (APC) are prepared from C57BL/6 mice and loaded with a peptide encompassing a CD1d-restricted NKT cell peptide epitope of hexon-6 capsid protein of adenovirus 5 vector used for gene therapy or gene vaccination.
Dendritic cells loaded with one of these peptides are then incubated with naïve CD62L+ CD4+ cells obtained from the spleen. After several cycles of stimulation, the capacity of NKT cells to induce apoptosis of the corresponding APC is measured and a comparison is established between peptides for their capacity to induce apoptosis.
The results shown in FIG. 1 (means of 2 experiments and SEM) indicate that NKT cells expanded with peptide of either SEQ. ID NO: 1 or SEQ. […] Negative controls include dendritic cells incubated with no peptides.

WEHI 231 cells = test: Induction of apoptosis of B cell line WEHI 231 by peptide-expanded NKT cells; assay type: cell-based, BALB/c mice; conditions: WEHI 231 B cell line (H-2d) as APC; NKT cells elicited with the peptide; FIG. 3, means of 2 experiments and SEM
Excerpt: FIG. 3 depicts similar experiments (means of 2 experiments and SEM) but using a B cell line (WEHI 231 cells). WEHI cells are derived from BALB/c mice (H-2d) and not from C57BL/6 mice (H-2b). The histo-incompatibility between the 2 strains prevents presentation of peptides designed for C57BL/6 mice by BALB/c MHC class II, but not presentation by the non-polymorphic CD1d molecule. […] ID NO: 1 or SEQ. ID NO: 2.

APCs = test: Capacity of NKT cells to induce apoptosis of APCs, peptide with modified CD1d binding motif; assay type: cell-based; conditions: W substituted at position P7 of the CD1d binding motif
Method: Modification of the core sequence of the CD1d binding motif is carried out by introducing a hydrophobic amino acid at position P7 of the motif and generates the peptide IAFRDN FIGLMYW [SEQ. ID NO: 3], in which W at position 7 increases the binding to the hydrophobic pocket of CD1d.

| Sequence | apoptosis of dendritic cells, as measured by annexin V binding (dendritic cells) | induction of apoptosis (WEHI 231 cells) | capacity of NKT cells to induce apoptosis of APCs (APCs) |
| --- | --- | --- | --- |
| CHGCGGFIGLMYY (redutase motif + hexon 6 capsid protein) [SEQ. ID NO: 2, residues 333 to 339 of the hexon-6 protein containing a thioreductase motif (CxxC) within flanking residues (GG)] | elicit apoptosis of dendritic cells | significant induction of apoptosis |  |
| IAFRDNFIGLMYW (modified version of hexon 6 capsid protein) [SEQ. ID NO: 3] |  |  | further boosts the capacity of NKT cells to induce apoptosis of APCs |
| IAFRDNFIGLMYY (fragment of hexon 6 capsis protein) [SEQ. ID NO: 1, amino acid residues 327 to 339 of the hexon-6 protein of adenovirus 5] | elicit apoptosis of dendritic cells | significant induction of apoptosis |  |
